# Assay results taken from ChEMBL document CHEMBL1132051, “4-Alkyl- and 3,4-dialkyl-1,2,3,4-tetrahydro-8-pyridono[5,6-g]quinolines: potent, nonsteroidal androgen receptor agonists” (Bioorg Med Chem Lett, 1999).
# How the values were obtained:
# Androgen receptor [1] = target: T1, Androgen receptor (Homo sapiens, UniProt P10275)
# T1 sequence (P10275 whole entry): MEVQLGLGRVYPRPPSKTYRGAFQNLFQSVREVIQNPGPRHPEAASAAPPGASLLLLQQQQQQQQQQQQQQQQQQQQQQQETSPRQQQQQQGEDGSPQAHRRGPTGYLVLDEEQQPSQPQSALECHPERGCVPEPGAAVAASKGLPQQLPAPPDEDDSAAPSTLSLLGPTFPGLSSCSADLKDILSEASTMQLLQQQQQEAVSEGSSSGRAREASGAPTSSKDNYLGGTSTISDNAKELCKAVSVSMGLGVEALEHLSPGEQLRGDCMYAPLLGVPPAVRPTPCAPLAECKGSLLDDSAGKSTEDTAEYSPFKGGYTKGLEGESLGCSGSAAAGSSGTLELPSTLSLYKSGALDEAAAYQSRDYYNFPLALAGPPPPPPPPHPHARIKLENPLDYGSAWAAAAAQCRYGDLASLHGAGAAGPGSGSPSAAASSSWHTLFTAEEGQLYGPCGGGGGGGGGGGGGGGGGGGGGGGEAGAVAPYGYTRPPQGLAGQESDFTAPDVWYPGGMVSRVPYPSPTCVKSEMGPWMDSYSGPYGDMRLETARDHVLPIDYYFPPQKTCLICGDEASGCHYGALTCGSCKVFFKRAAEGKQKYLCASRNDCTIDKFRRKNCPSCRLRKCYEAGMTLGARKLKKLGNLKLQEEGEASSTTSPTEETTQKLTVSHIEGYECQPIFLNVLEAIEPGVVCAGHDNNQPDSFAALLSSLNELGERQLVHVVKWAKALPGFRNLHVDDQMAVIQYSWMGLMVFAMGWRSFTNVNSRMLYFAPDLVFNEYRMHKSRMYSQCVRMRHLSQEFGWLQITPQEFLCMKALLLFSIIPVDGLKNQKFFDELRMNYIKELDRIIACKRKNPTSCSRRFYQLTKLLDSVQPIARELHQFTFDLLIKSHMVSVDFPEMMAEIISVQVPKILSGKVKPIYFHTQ
# Description: Binding affinity to the human androgen receptor (hAR), using [3H]DHT as radioligand in a competitive binding assay
# Androgen receptor [2] = target: T1, Androgen receptor; remark: listed apart in the source
# Description: Agonist activity to the human androgen receptor (hAR) in CV-1 cells
# Androgen receptor [3] = target: T1, Androgen receptor; experiment: Antagonistic activity against human androgen receptor (hAR) in CV-1 cells was determined as a function of maximal inhibition of dihydrotestosterone using cotransfection assay; format: functional, cell-based
# Androgen receptor [4] = target: T1, Androgen receptor; remark: listed apart in the source
# Description: Antagonistic activity against human androgen receptor (hAR) in CV-1 cells using cotransfection assay
SMILES,Ki (Androgen receptor [1]) [nM],EC50 (Androgen receptor [2]) [nM],IC50 (Androgen receptor [3]) [nM],IC50 (Androgen receptor [4]) [nM]
CC[C@H]1c2cc3c(C(F)(F)F)cc(=O)[nH]c3cc2NC[C@H]1C (relative stereo),27,7,> 10000,–
CCC1CCNc2cc3c(cc21)c(C(F)(F)F)cc(=O)n3C (stereo unspecified),9,> 10000,–,20
CC1c2cc3c(C(F)(F)F)cc(O)nc3cc2NC[C@@H]1C (stereo partly specified),16,10,> 10000,–
CCC1CCN(C)c2cc3c(cc21)c(C(F)(F)F)cc(=O)n3C (stereo unspecified),263,> 10000,–,216
O=c1cc(C(F)(F)F)c2cc3c(cc2[nH]1)NC[C@@H]1CCC[C@H]31,8,9,–,> 10000
CC1c2cc3c(C(F)(F)F)cc(O)nc3cc2NC[C@H]1C (stereo partly specified),8,22,> 10000,–
O=c1cc(C(F)(F)F)c2cc3c(cc2[nH]1)NCCC3c1cc(C(F)(F)F)cc(C(F)(F)F)c1 (stereo unspecified),> 1000,> 10000,–,251
C[C@@H]1CNc2cc3[nH]c(=O)cc(C(F)(F)F)c3cc2[C@@H]1CCC(F)(F)F,> 1000,82,–,63
CCC1CCN(C=O)c2cc3nc(O)cc(C(F)(F)F)c3cc21 (stereo unspecified),> 1000,137,> 10000,–
Oc1cc(C(F)(F)F)c2cc3c(cc2n1)NC[C@@H]1CCCC[C@H]31,2,3,–,> 10000
CC(C)CC1CCNc2cc3nc(O)cc(C(F)(F)F)c3cc21 (stereo unspecified),22,25,> 10000,–
CCC1CCN(C)c2cc3[nH]c(=O)cc(C(F)(F)F)c3cc21 (stereo unspecified),630,158,–,> 10000
Oc1cc(C(F)(F)F)c2cc3c(cc2n1)NC[C@H]1CCCC[C@H]31,15,2,> 10000,–
CCCC1CCNc2cc3nc(O)cc(C(F)(F)F)c3cc21 (stereo unspecified),29,19,–,> 10000
CC(C)C1CCNc2cc3[nH]c(=O)cc(C(F)(F)F)c3cc21 (stereo unspecified),13,3,–,> 10000
CCC1c2cc3c(C(F)(F)F)cc(=O)[nH]c3cc2NC[C@@H]1C (stereo partly specified),8,7,–,2710
CC1CCNc2cc3nc(O)cc(C(F)(F)F)c3cc21 (stereo unspecified),9,15,–,259
CCC1(CC)CCNc2cc3nc(O)cc(C(F)(F)F)c3cc21,58,> 10000,–,73
Oc1cc(C(F)(F)F)c2cc3c(cc2n1)NCCC3,19,317,–,12
CC1(C)CCNc2cc3[nH]c(=O)cc(C(F)(F)F)c3cc21,12,68,–,16
C[C@H]1CNc2cc3nc(O)cc(C(F)(F)F)c3cc2C1CCC(F)(F)F (stereo partly specified),2,13,61,–
CC(C)C[C@H]1c2cc3c(C(F)(F)F)cc(=O)[nH]c3cc2NC[C@@H]1C (relative stereo),72,56,–,29
